Reference: the NIST ThermoML archive (doi:10.1016/j.fluid.2007.01.038)
± gives the expanded uncertainty stated by the source.

Legend:
[1] = refractive index (Na D-line) (dimensionless); conditions: 298.15 K; 101.33 kPa; Liquid; Standard Abbe refractometry
[2] = Liquid; for mass density: 298.15 K, 101.33 kPa; for Normal boiling temperature: Ebulliometric method (Recirculating still)

Row | refractive index [1] | mass density [2] [kg/m3] | Normal boiling temperature [2] [°C] | Compound
1 | 1.3917 ± 0.00072 | 757.57 ± 0.26 | 122.50 ± 0.1 | CCCCOC(C)(C)C [butane, 1-(1,1-dimethylethoxy)-]
2 | 1.3592 ± 0.00073 | 785.22 ± 0.5 | 78.29 ± 0.1 | CCO [ethanol]
3 | 1.3264 ± 0.0007 | 786.63 ± 0.5 | 64.4 ± 0.1 | CO [methanol]
